Measured values reported in patent US20210330611A1, “THERAPY FOR NEUROLOGICAL DISEASES/DISORDERS” (priority 2020, published 2021).
Structures can show the parent of a compound that is named as a salt. Where two headings read alike, the source gives them in different places.

How the values were obtained:
primary rat microglia [1] = test system: primary rat microglia;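 as to Fibrin % cell toxicity: share of dead cells sized under 150 µm2 at 10 µM in fibrin-stimulated microglia HTS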
[2] = test system: fibrin- and LPS-induced microglia activation; assay: cells; assay type: cell-based, rat
primary rat microglia [3] = test system: primary rat microglia; remark: listed apart in the source;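 as to Fibrin % cell toxicity: share of dead cells sized under 150 µm2 at 10 µM in fibrin-stimulated microglia HTS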
[4] = test system: fibrin-induced microglia activation; assay: Image-based assay of fibrin-induced microglia activation (HTS and dose response); assay type: cell-based, rat; conditions: for inhibition at 10 µM: Rattus norvegicus, Microglia, read-out: Fibrin % inhibition
[5] = test system: LPS-induced microglia activation; assay: Image-based assay of LPS-induced microglia activation (HTS and dose response); assay type: cell-based, rat; conditions: for inhibition at 10 µM: Rattus norvegicus, Microglia, read-out: LPS % inhibition
[6] = quadrant by fibrin and LPS inhibition, HTS at 10 μM
[7] = primary microglia HTS, fibrin stimulation, compounds at 10 μM
[8] = primary microglia HTS, LPS stimulation, compounds at 10 μM
[9] = primary HTS, 10 μM, fibrin-stimulated primary microglia
[10] = primary HTS, 10 μM, LPS-stimulated primary microglia

Structure (SMILES)	Fibrin % cell toxicity (primary rat microglia [1]; rat)	Quadrant (FIG. 5b) [2, 6]	LPS % cell toxicity (primary rat microglia [3]; rat)	inhibition at 10 µM [4, 7]	inhibition at 10 µM [5, 8]	Quadrant (FIG. 5b) [2]	also measured
CC(=O)OCC[N+](C)(C)C [Acetylcholine]	0%	Q4	0%	-39%	9%		
CC[C@H]1[C@@H]2C[C@H]3[C@@H]4N(C)c5ccccc5[C@]45C[C@@H]([C@H]2[C@H]5O)N3[C@@H]1O [Ajmaline]	1%	Q4	0%	-6%	13%		
Oc1ncnc2[nH]ncc12 [Allopurinol]	1%	Q4	0%	-17%	16%		
Cc1c(C)c2c(c(C)c1O)CCC(C)(CCCC(C)CCCC(C)CCCC(C)C)O2 (stereo not drawn) [Alpha-tochopherol]		Q4					Fibrin % cell toxicity (primary rat microglia [1]): 0%; LPS % cell toxicity (primary rat microglia [3]): 0%; Fibrin % inhibition [4, 7]: 18%; LPS % inhibition [5, 8]: 21%
C=CCc1ccccc1OCC(O)CNC(C)C (stereo not drawn) [Alprenolol Hydrochloride, Alprenolol]		Q4					Fibrin % cell toxicity (primary rat microglia [1]): 0%; LPS % cell toxicity (primary rat microglia [3]): 1%; Fibrin % inhibition [4, 7]: 1%; LPS % inhibition [5, 8]: 13%
O=C(O)CN1C(=O)c2cccc3cccc(c23)C1=O [Alrestatin]	1%		0%			Q4	inhibition at 10 µM [4]: 11%; inhibition at 10 µM [5]: 12%
NCCCNCCSP(=O)(O)O [Amifostine]	0%	Q4	0%	-38%	15%		
N=C(N)NC(=O)c1nc(Cl)c(N)nc1N [Amiloride]	1%	Q4	0%	20%	7%		
NCCCCCC(=O)O [Aminocaproic Acid]	1%		0%			Q4	inhibition at 10 µM [4]: 5%; inhibition at 10 µM [5]: 7%
NCC(=O)CCC(=O)O [Aminolevulinic acid]	1%	Q4	0%	-4%	10%		
Cn1c(=O)c2[nH]cnc2n(C)c1=O [Aminophylline, Theophylline]						Q4	Fibrin % cell toxicity (primary rat microglia [1]): 1%; LPS % cell toxicity (primary rat microglia [3]): 0%; Fibrin % inhibition ([4]; 10 µM): 35%; LPS % inhibition ([5]; 10 µM): 25%
CN(C)CCC=C1c2ccccc2CCc2ccccc21 [Amitriptyline]	1%		1%			Q4	inhibition at 10 µM [4]: 14%; inhibition at 10 µM [5]: 30%
CCOC(=O)OC(C)OC1=C(C(=O)Nc2ccccn2)N(C)S(=O)(=O)c2ccccc21 (stereo not drawn) [Ampiroxicam]	1%	Q4	0%	-9%	14%		
CC(C)CN(C[C@@H](O)[C@H](Cc1ccccc1)NC(=O)O[C@H]1CCOC1)S(=O)(=O)c1ccc(N)cc1 [Amprenavir]	1%	Q4	0%	-10%	6%		
CN(C)c1cnccn1.O=S(=O)(O)O [Ampyzine Sulfate]						Q4	Fibrin % cell toxicity (primary rat microglia [1]): 0%; LPS % cell toxicity (primary rat microglia [3]): 1%; Fibrin % inhibition ([4]; 10 µM): −18%; LPS % inhibition ([5]; 10 µM): 11%
COc1cc(NS(C)(=O)=O)ccc1Nc1c2ccccc2nc2ccccc12 [Amsacrine]	3%		54%				Quadrant (FIG. 5b) ([2]; quadrant by fibrin and LPS inhibition in HTS of 1907 compounds): Q2; inhibition at 10 µM ([4]; primary microglia HTS, fibrin stimulation, increased cell size (>800 μm^2) as marker of activation): 70%; inhibition at 10 µM ([5]; 48 h, primary microglia HTS, LPS stimulation, increased cell size (>800 μm^2) as marker of activation): 120%
CC(C)(C#N)c1cc(Cn2cncn2)cc(C(C)(C)C#N)c1 [Anastrozole]	1%	Q4	0%	31%	16%		
N=c1ccn2c(n1)O[C@H]1[C@H](O)[C@@H](CO)O[C@H]12 [Ancitabine Hydrochloride]	1%	Q4	1%	-4%	27%		

Structure (SMILES)	Fibrin % cell toxicity (primary rat microglia [1]; rat)	Quadrant (FIG. 5b) [2, 6]	LPS % cell toxicity (primary rat microglia [3]; rat)	inhibition at 10 µM [4, 7]	inhibition at 10 µM [5, 8]	Quadrant (FIG. 5b) [2]	also measured
Cl.N=C(N)NCCC[C@H](N)C(=O)O [Arginine Hydrochloride]	0%	Q4	2%	9%	42%		
CCCCCCCCCCCCCCCC(=O)OC[C@H](O)[C@H]1OC(=O)C(O)=C1O [Ascorbyl Palmitate]	1%	Q4	0%	38%	20%		
Cn1cnc([N+](=O)[O-])c1Sc1ncnc2nc[nH]c12 [Azathioprine]	0%		0%			Q4	inhibition at 10 µM [4]: -14%; inhibition at 10 µM [5]: 16%
CC[C@H]1OC(=O)[C@H](C)[C@@H](O[C@H]2C[C@@](C)(OC)[C@@H](O)[C@H](C)O2)[C@H](C)[C@@H](O[C@@H]2O[C@H](C)C[C@H](N(C)C)[C@H]2O)[C@](C)(O)C[C@@H](C)CN(C)[C@H](C)[C@@H](O)[C@]1(C)O [Azithromycin]	0%	Q4	0%	-16%	11%		
NC(CO)C(=O)NNCc1ccc(O)c(O)c1O (stereo not drawn) [Benserazide]	0%	Q4	0%	-16%	8%		
CCOC(=O)c1ccc(N)cc1 [Benzocaine]	1%	Q4	0%	-24%	7%		
O=C(O)c1ccccc1 [Benzoic Acid]	0%		0%			Q4	inhibition at 10 µM [4]: -6%; inhibition at 10 µM [5]: 6%
O=C(Nc1ccc(C(=O)O)c(O)c1)c1ccccc1 [Benzoylpas]	4%		2%			Q2	inhibition at 10 µM [4]: 107%; inhibition at 10 µM ([5]; 48 h): 87%
CN1[C@@H]2CC[C@H]1C[C@@H](OC(c1ccccc1)c1ccccc1)C2 [Benztropine]	1%		0%			Q4	inhibition at 10 µM [4]: -7%; inhibition at 10 µM [5]: 30%
O=C(OCc1ccccc1)c1ccccc1 [Benzyl Benzoate]	1%		1%				Quadrant (FIG. 5b) ([2]; primary HTS, 10 μM): Q4; inhibition at 10 µM [4, 9]: 35%; inhibition at 10 µM [5, 10]: 32%
CC(C)COCC(CN(Cc1ccccc1)c1ccccc1)N1CCCC1 (stereo not drawn) [Bepridil]	1%		0%				Quadrant (FIG. 5b) ([2]; primary HTS, 10 μM): Q4; inhibition at 10 µM [4, 9]: 1%; inhibition at 10 µM [5, 10]: 15%
COc1ccc2cc3[n+](cc2c1OC)CCc1cc2c(cc1-3)OCO2 [Berberine]	0%		0%				Quadrant (FIG. 5b) ([2]; primary HTS, 10 μM): Q4; inhibition at 10 µM [4, 9]: -62%; inhibition at 10 µM [5, 10]: 4%
Oc1ccc2ccccc2c1 [Beta-naphthol]	0%		0%			Q4	inhibition at 10 µM [4]: -17%; inhibition at 10 µM [5]: 15%
CCC(=O)OCC(=O)[C@@]1(OC(=O)CC)[C@@H](C)C[C@H]2[C@@H]3CCC4=CC(=O)C=C[C@]4(C)[C@@]3(F)[C@@H](O)C[C@@]21C [Betamethasone 17,21-dipropionate]							Fibrin % cell toxicity (primary rat microglia [1]): 1%; Quadrant (FIG. 5b) ([2]; primary HTS, 10 μM): Q4; LPS % cell toxicity (primary rat microglia [3]): 0%; Fibrin % inhibition [4, 9]: 21%; LPS % inhibition [5, 10]: 29%
CC(C[N+](C)(C)C)OC(N)=O (stereo not drawn) [Bethanechol]	1%		0%				Quadrant (FIG. 5b) ([2]; primary HTS, 10 μM): Q4; inhibition at 10 µM [4, 9]: 14%; inhibition at 10 µM [5, 10]: 15%
C=C(c1ccc(C(=O)O)cc1)c1cc2c(cc1C)C(C)(C)CCC2(C)C [Bexarotene]	1%		1%				Quadrant (FIG. 5b) ([2]; primary HTS, 10 μM): Q4; inhibition at 10 µM [4, 9]: -3%; inhibition at 10 µM [5, 10]: 10%
c1ccc(-c2ccc(C(c3ccccc3)n3ccnc3)cc2)cc1 (stereo not drawn) [Bifonazole]	1%		0%			Q4	inhibition at 10 µM [4]: -3%; inhibition at 10 µM [5]: 14%
O=C(O)CCCC[C@@H]1SC[C@@H]2NC(=O)N[C@@H]21 [Biotin]	1%		0%			Q4	inhibition at 10 µM [4]: 24%; inhibition at 10 µM [5]: 12%
